One assay relates to Ramos cells with BTK WT. Put plainly: Phosphor-BTK(Y223) assay, suspended cells. To be noted: Homo sapiens, Ramos, phosphorylated BTK Y223, Ramos cells with BTK WT. Format: cell-based. The procedure, abridged: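 Ramos BTK WT cells (2.5 k/well) were treated with compound dilutions for 2 h at 37 °C, then 5 mM Na3VO4 for 3 h. Lysates were read by HTRF p-BTK(Y223) cryptate/d2 antibodies overnight at RT (665/620 ratio). IC50 came from a four-parameter fit of % inhibition versus blank and positive-control wells.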
The term IC50 denotes the concentration at which inhibition is half-maximal. Read a low IC50 as higher potency. In turn, `COc1ccc(F)cc1C(=O)NCc1ccc(-c2nc(C(C)C(F)(F)F)c(-c3ccn(C)n3)c3[nH]nc(N)c23)cc1` (centres unmarked) [Example 6, N-(4-(3-amino-7-(1-methyl-1H-pyrazol-3-yl)-6-(1,1,1-trifluoropropan-2-yl)-1H-pyrazolo[4,3-c]pyridin-4-yl)benzyl)-5-fluoro-2-methoxybenzamide] gave an IC50 of at most 5 nM.
On the same count and under the same terms, as for `COc1ccc(F)cc1C(=O)NCc1ccc(-c2nc(C(C)C(F)(F)F)c(-c3ncccn3)c3[nH]nc(N)c23)cc1` (centres unmarked) [Example 7, N-(4-(3-amino-7-(pyrimidin-2-yl)-6-(1,1,1-trifluoropropan-2-yl)-1H-pyrazolo[4,3-c]pyridin-4-yl)benzyl)-5-fluoro-2-methoxybenzamide], the figure is 5 to 10 nM; as for `COc1ccc(F)cc1C(=O)NCc1ccc(-c2ncc(-c3cnn(C)c3)c3[nH]nc(N)c23)cc1` [Example 22, N-(4-(3-amino-7-(1-methyl-1H-pyrazol-4-yl)-1H-pyrazolo[4,3-c]pyridin-4-yl)benzyl)-5-fluoro-2-oxybenzamide], 10 to 50 nM; as for `COc1ccc(F)cc1C(=O)NCc1ccc(-c2ncc(-c3ccn(CC(=O)N(C)C)n3)c3[nH]nc(N)c23)cc1` [Example 25, N-(4-(3-amino-7-(1-(2-(dimethylamino)-2-oxoethyl)-1H-pyrazol-3-yl)-1H-pyrazolo[4,3-c]pyridin-4-yl)benzyl)-5-fluoro-2-methoxybenzamide], 5 to 10 nM.
The same measure, in the same setting: with `CNC(=O)Cn1ccc(-c2cnc(-c3ccc(CNC(=O)c4cc(F)ccc4OC)cc3)c3c(N)n[nH]c23)n1` [Example 26, N-(4-(3-amino-7-(1-(2-(methylamino)-2-oxoethyl)-1H-pyrazol-3-yl)-1H-pyrazolo[4,3-c]pyridin-4-yl)benzyl)-5-fluoro-2-methoxybenzamide] the figure was at most 5 nM.
On the same count and under the same terms, as for `COc1ccc(F)cc1C(=O)NCc1ccc(-c2ncc(-c3ccn(CC(F)(F)F)n3)c3[nH]nc(N)c23)cc1` [Example 28, N-(4-(3-amino-7-(1-(2,2,2-trifluoroethyl)-1H-pyrazol-3-yl)-1H-pyrazolo[4,3-c]pyridin-4-yl)benzyl)-5-fluoro-2-methoxybenzamide], the figure is 10 to 50 nM.
Regarding `COc1ccc(F)cc1C(=O)NCc1ccc(-c2ncc(-c3cn(C)cn3)c3[nH]nc(N)c23)cc1` [Example 30, N-(4-(3-amino-7-(1-methyl-1H-imidazol-4-yl)-1H-pyrazolo[4,3-c]pyridin-4-yl)benzyl)-5-fluoro-2-methoxybenzamide], the IC50 lay within 10 to 50 nM.
Consider `COc1ccc(F)cc1C(=O)NCc1ccc(-c2ncc(-c3cc[nH]n3)c3[nH]nc(N)c23)cc1` [Example 31, N-(4-(3-amino-7-(1H-pyrazol-3-yl)-1H-pyrazolo[4,3-c]pyridin-4-yl)benzyl)-5-fluoro-2-methoxybenzamide], for which the 50% inhibitory concentration (IC50) was 10 to 50 nM.
In the case of `COc1ccc(F)cc1C(=O)NCc1ccc(-c2ncc(-c3ncc(F)cn3)c3[nH]nc(N)c23)cc1` [Example 36, N-(4-(3-amino-7-(5-fluoropyrimidin-2-yl)-1H-pyrazolo[4,3-c]pyridin-4-yl)benzyl)-5-fluoro-2-methoxybenzamide], the IC50 is 10 to 50 nM.
Still for that read-out and setting: as for `COc1ccc(F)cc1C(=O)NCc1ccc(-c2ncc(-c3ccc(Cl)cn3)c3[nH]nc(N)c23)cc1` [Example 38, N-(4-(3-amino-7-(5-chloropyridin-2-yl)-1H-pyrazolo[4,3-c]pyridin-4-yl)benzyl)-5-fluoro-2-methoxybenzamide], the figure is at most 5 nM; as for `COc1ccc(F)cc1C(=O)NCc1ccc(-c2ncc(-c3ncc(C)cn3)c3[nH]nc(N)c23)cc1` [Example 39, N-(4-(3-amino-7-(5-methylpyrimidin-2-yl)-1H-pyrazolo[4,3-c]pyridin-4-yl)benzyl)-5-fluoro-2-methoxybenzamide], at most 5 nM; as for `COc1ccc(F)cc1C(=O)NCc1ccc(-c2ncc(-c3ccc(OC(F)(F)F)cn3)c3[nH]nc(N)c23)cc1` [Example 41, N-(4-(3-amino-7-(5-(trifluoromethoxy)pyridin-2-yl)-1H-pyrazolo[4,3-c]pyridin-4-yl)benzyl)-5-fluoro-2-methoxybenzamide], at most 5 nM.
With `COc1ccc(F)cc1C(=O)NCc1ccc(-c2ncc(-c3ncc(C(F)(F)F)cn3)c3[nH]nc(N)c23)cc1` [Example 42, N-(4-(3-amino-7-(5-(trifluoromethyl)pyrimidin-2-yl)-1H-pyrazolo[4,3-c]pyridin-4-yl)benzyl)-5-fluoro-2-methoxybenzamide], the IC50 was in the range of 10 to 50 nM.
Still for that read-out and setting: as for `CCOC(=O)c1cnc2cc(-c3cnc(-c4ccc(CNC(=O)c5cc(F)ccc5OC)cc4)c4c(N)n[nH]c34)nn2c1` [Example 45, ethyl 2-(3-amino-4-(4-((5-fluoro-2-methoxybenzoylamino)methyl)phenyl)-1H-pyrazolo[4,3-c]pyridin-7-yl)pyrazolo[1,5-a]pyrimidine-6-carboxylate], the figure is over 50 nM.
`COc1ccc(F)cc1C(=O)NCc1ccc(-c2ncc(-c3ccc4cn[nH]c4n3)c3[nH]nc(N)c23)cc1` [Example 47, N-(4-(3-amino-7-(1H-pyrazolo[3,4-b]pyridin-6-yl)-1H-pyrazolo[4,3-c]pyridin-4-yl)benzyl)-5-fluoro-2-methoxybenzamide] returned an IC50 of 5 to 10 nM.
In turn, `COc1ccc(F)cc1C(=O)NCc1ccc(-c2ncc(-c3ccc(C(F)F)cn3)c3[nH]nc(N)c23)cc1` [Example 48, N-(4-(3-amino-7-(5-(difluoromethyl)pyridin-2-yl)-1H-pyrazolo[4,3-c]pyridin-4-yl)benzyl)-5-fluoro-2-methoxybenzamide] returned a 50% inhibitory concentration (IC50) of at most 5 nM.
Take `COc1ccc(F)cc1C(=O)NCc1ccc(-c2ncc(-c3cn4ccnc4cn3)c3[nH]nc(N)c23)cc1` [Example 50, N-(4-(3-amino-7-(imidazo[1,2-a]pyrazin-6-yl)-1H-pyrazolo[4,3-c]pyridin-4-yl)benzyl)-5-fluoro-2-methoxybenzamide]: the IC50 was in the range of 5 to 10 nM.
The same measure, in the same setting: as for `COc1ccc(F)cc1C(=O)NCc1ccc(-c2ncc(-c3ccc4nccn4n3)c3[nH]nc(N)c23)cc1` [Example 51, N-(4-(3-amino-7-(imidazo[1,2-b]pyridazin-6-yl)-1H-pyrazolo[4,3-c]pyridin-4-yl)benzyl)-5-fluoro-2-methoxybenzamide], the figure is 5 to 10 nM; as for `COc1ccc(F)cc1C(=O)NCc1ccc(-c2ncc(-c3ccc(C(=O)N4C[C@@H](C)O[C@H](C)C4)cn3)c3[nH]nc(N)c23)cc1` [Example 54, N-(4-(3-amino-7-(5-((2R,6R)-2,6-dimethylmoroholine-4-carbonyl)pyridin-2-yl)-1H-pyrazolo[4,3-c]pyridin-4-yl)benzyl)-5-fluoro-2-methoxybenzamide], at most 5 nM.
On the same count and under the same terms, with `COc1ccc(F)cc1C(=O)NCc1ccc(-c2ncc(-c3ccc(P(C)(C)=O)cn3)c3[nH]nc(N)c23)cc1` [Example 56, N-(4-(3-amino-7-(5-(dimethylphosphoryl)pyridin-2-yl)-1H-pyrazolo[4,3-c]pyridin-4-yl)benzyl)-5-fluoro-2-methoxybenzamide] the figure was at most 5 nM; with `COc1ccc(F)cc1C(=O)NCc1ccc(-c2ncc(-c3nc4cnccn4n3)c3[nH]nc(N)c23)cc1` [Example 57, N-(4-(7-([1,2,4]triazolo[1,5-a]pyrazin-2-yl)-3-amino-1H-pyrazolo[4,3-c]pyridin-4-yl)benzyl)-5-fluoro-2-methoxybenzamide], 10 to 50 nM.
`COc1ccc(F)cc1C(=O)NCc1ccc(-c2ncc(-c3nc4ccccn4n3)c3[nH]nc(N)c23)cc1` [Example 58, N-(4-(7-([1,2,4]triazolo[1,5-a]pyridin-2-yl)-3-amino-1H-pyrazolo[4,3-c]pyridin-4-yl)benzyl)-5-fluoro-2-methoxybenzamide] showed an IC50 of at most 5 nM.
On the same count and under the same terms, with `COc1ccc(F)cc1C(=O)NCc1ccc(-c2ncc(-c3cnn4cccnc34)c3[nH]nc(N)c23)cc1` [Example 70, N-(4-(3-amino-7-(pyrazolo[1,5-a]pyrimidin-3-yl)-1H-pyrazolo[4,3-c]pyridin-4-yl)benzyl)-5-fluoro-2-methoxybenzamide] the figure was at most 5 nM; with `COc1ccc(F)cc1C(=O)NCc1ccc(-c2ncc(-c3ccc(N4CCN(C)CC4)cn3)c3[nH]nc(N)c23)cc1` [Example 73, N-(4-(3-amino-7-(5-(4-methylpiperazin-1-yl)pyridin-2-yl)-1H-pyrazolo[4,3-c]pyridin-4-yl)benzyl)-5-fluoro-2-methoxybenzamide], at most 5 nM; with `COc1ccc(F)cc1C(=O)NCc1ccc(-c2ncc(-c3nccn4cccc34)c3[nH]nc(N)c23)cc1` [Example 77, N-(4-(3-amino-7-(pyrrolo[1,2-a]pyrazin-1-yl)-1H-pyrazolo[4,3-c]pyridin-4-yl)benzyl)-5-fluoro-2-methoxybenzamide], at most 5 nM.
As to `COc1ccc(F)cc1C(=O)NCc1ccc(-c2ncc(-c3cc4cnccn4n3)c3[nH]nc(N)c23)cc1` [Example 78, N-(4-(3-amino-7-(pyrazolo[1,5-a]pyrazin-2-yl)-1H-pyrazolo[4,3-c]pyridin-4-yl)benzyl)-5-fluoro-2-methoxybenzamide], the IC50 was at most 5 nM.
In the case of `COc1ccc(F)cc1C(=O)NCc1ccc(-c2ncc(-c3ccc(F)cn3)c3[nH]nc(N)c23)c(F)c1` [Example 82, N-(4-(3-amino-7-(5-fluoropyridin-2-yl)-1H-pyrazolo[4,3-c]pyridin-4-yl)-3-fluorobenzyl)-5-fluoro-2-methoxybenzamide], the 50% inhibitory concentration (IC50) lay in the range of 10 to 50 nM.

Staying with this assay, now noted: Homo sapiens; phosphorylated BTK Y223, Ramos cells with BTK WT.
Compound `COc1ccc(F)cc1C(=O)NCc1ccc(-c2ncc(-c3ccc(NC(=O)C4CC4)cn3)c3[nH]nc(N)c23)cc1` [Example 79, N-(4-(3-amino-7-(5-(cyclopropaneformamido)pyridin-2-yl)-1H-pyrazolo[4,3-c]pyridin-4-yl)benzyl)-5-fluoro-2-methoxybenzamide] registered an IC50 of 5 to 10 nM.
On to `COc1ccc(F)cc1C(=O)NCc1ccc(-c2ncc(-c3cc(NC(=O)C4CC4)ccn3)c3[nH]nc(N)c23)cc1` [Example 80, N-(4-(3-amino-7-(4-(cyclopropaneformamido)pyridin-2-yl)-1H-pyrazolo[4,3-c]pyridin-4-yl)benzyl)-5-fluoro-2-methoxybenzamide], for which the IC50 is at most 5 nM.

The values are drawn from EP4741392A1, “1H-PYRAZOLO[4,3-C]PYRIDINE COMPOUND, AND COMPOSITION THEREOF AND USE THEREOF” (Shenzhen TargetRx Co., Ltd., priority 2023, dated 2025).
